Test results as given in US10597388B2, “Pyridazinone herbicides” (FMC CORPORATION, priority 2014, dated 2020).

Assays:
Assay in all cases: Test D controlled growth environment herbicide test, pre- and postemergence
Type in all cases: in vivo
[1] = tested on: chamomile (scentless chamomile, Matricaria inodora)
Summary of the method: (§1)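 Species sown in silt loam and sprayed preemergence, or grown in peat-based medium to 2–18 cm (1- to 4-leaf stage) and sprayed postemergence, with compounds in non-phytotoxic solvent plus surfactant. Visual injury scored versus controls after 14–21 d in a controlled environment, 0 (no effect) to 100 (complete control).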

[2] = tested on: lambsquarters (Chenopodium album)
Summary of the method: as §1

[3] = tested on: barley, spring (spring barley, Hordeum vulgare)
Summary of the method: as §1

[4] = tested on: windgrass (Apera spica-venti)
Summary of the method: as §1

[5] = tested on: oilseed rape (Brassica napus)
Summary of the method: as §1

[6] = tested on: mustard, wild (wild mustard, Sinapis arvensis)
Summary of the method: as §1

[7] = tested on: wheat, spring (spring wheat, Triticum aestivum)
Summary of the method: as §1

[8] = tested on: field violet (Viola arvensis)
Summary of the method: as §1

[9] = tested on: oat, wild (wild oat, Avena fatua)
Summary of the method: as §1

[10] = tested on: deadnettle (henbit deadnettle, Lamium amplexicaule)
Summary of the method: as §1

[11] = tested on: radish, wild (wild radish, Raphanus raphanistrum)
Summary of the method: as §1

[12] = tested on: bromegrass, downy (downy bromegrass, Bromus tectorum)
Summary of the method: as §1

[13] = tested on: speedwell (bird's-eye speedwell, Veronica persica)
Summary of the method: as §1

[14] = Postemergence, 31 g ai/ha, scale 0 to 100 (0 no effect, 100 complete control)
[15] = Postemergence, 125 g ai/ha, visual rating on scale 0 (no effect) to 100 (complete control), 14 to 21 d
[16] = Postemergence, 250 g ai/ha, scale 0 to 100 (0 no effect, 100 complete control)
[17] = Preemergence, 125 g ai/ha, scale 0 to 100 (0 no effect, 100 complete control)
[18] = Preemergence, 250 g ai/ha, scale 0 to 100 (0 no effect, 100 complete control)
[19] = postemergence, 62 g ai/ha, scale 0 to 100, 0 no effect, 100 complete control
[20] = Preemergence, 62 g ai/ha, scale 0 to 100 (0 no effect, 100 complete control)

CC(=O)Oc1c(C)nn(C)c(=O)c1-c1ccc(F)c2ccccc12 [Compound 90]
Chamomile plant response rating [1, 14]: 70 | Plant response rating, Chamomile [1, 15]: 98 | Plant response rating, Chamomile [1, 16]: 100 | Plant response rating (scale of 0 to 100), Chamomile ([1]; Preemergence, 31 g ai/ha): 100 | Plant response rating (scale of 0 to 100), Chamomile ([1]; Preemergence, 62 g ai/ha): 100 | Plant response rating, Chamomile [1, 17]: 100 | Plant response rating, Chamomile [1, 18]: 100 | Plant response rating, Chamomile [1, 19]: 75 | Lambsquarters plant response rating [2, 14]: 90 | Plant response rating, Lambsquarters [2, 15]: 100 | Plant response rating, Lambsquarters [2, 16]: 100 | Plant response rating (scale of 0 to 100), Lambsquarters ([2]; Preemergence, 31 g ai/ha): 90 | Plant response rating (scale of 0 to 100), Lambsquarters ([2]; Preemergence, 62 g ai/ha): 98 | Plant response rating, Lambsquarters [2, 17]: 85 | Plant response rating, Lambsquarters [2, 18]: 100 | Plant response rating, Lambsquarters [2, 19]: 90 | Barley, Spring plant response rating [3, 14]: 10 | Plant response rating, Barley, Spring [3, 15]: 35 | Plant response rating, Barley, Spring [3, 16]: 40 | Plant response rating (scale of 0 to 100), Barley, Spring ([3]; Preemergence, 31 g ai/ha): 0 | Plant response rating, Barley, Spring [3, 20]: 0 | Plant response rating, Barley, Spring [3, 17]: 20 | Plant response rating, Barley, Spring [3, 18]: 35 | Plant response rating, Barley, Spring [3, 19]: 25 | Windgrass plant response rating [4, 14]: 30 | Plant response rating, Windgrass [4, 15]: 70 | Plant response rating, Windgrass [4, 16]: 90 | Plant response rating (scale of 0 to 100), Windgrass ([4]; Preemergence, 31 g ai/ha): 50 | Plant response rating (scale of 0 to 100), Windgrass ([4]; Preemergence, 62 g ai/ha): 65 | Plant response rating, Windgrass [4, 17]: 80 | Plant response rating, Windgrass [4, 18]: 98 | Plant response rating, Windgrass [4, 19]: 50 | Oilseed Rape plant response rating [5, 14]: 0 | Plant response rating, Oilseed Rape [5, 15]: 15 | Plant response rating, Oilseed Rape [5, 16]: 70 | Plant response rating (scale of 0 to 100), Oilseed Rape ([5]; Preemergence, 31 g ai/ha): 0 | Plant response rating (scale of 0 to 100), Oilseed Rape ([5]; Preemergence, 62 g ai/ha): 0 | Plant response rating, Oilseed Rape [5, 17]: 0 | Plant response rating, Oilseed Rape [5, 18]: 0 | Plant response rating, Oilseed Rape [5, 19]: 5 | Mustard, Wild plant response rating [6, 14]: 80 | Plant response rating, Mustard, Wild [6, 15]: 100 | Plant response rating, Mustard, Wild [6, 16]: 100 | Plant response rating (scale of 0 to 100), Mustard, Wild ([6]; Preemergence, 31 g ai/ha): 35 | Plant response rating (scale of 0 to 100), Mustard, Wild ([6]; Preemergence, 62 g ai/ha): 98 | Plant response rating, Mustard, Wild [6, 17]: 100 | Plant response rating, Mustard, Wild [6, 18]: 90 | Plant response rating, Mustard, Wild [6, 19]: 95 | Wheat, Spring plant response rating [7, 14]: 25 | Plant response rating, Wheat, Spring [7, 15]: 40 | Plant response rating, Wheat, Spring [7, 16]: 50 | Plant response rating (scale of 0 to 100), Wheat, Spring ([7]; Preemergence, 31 g ai/ha): 20 | Plant response rating (scale of 0 to 100), Wheat, Spring ([7]; Preemergence, 62 g ai/ha): 35 | Plant response rating, Wheat, Spring [7, 17]: 60 | Plant response rating, Wheat, Spring [7, 18]: 70 | Plant response rating, Wheat, Spring [7, 19]: 35 | Field Violet plant response rating [8, 14]: 90 | Plant response rating, Field Violet [8, 15]: 100 | Plant response rating, Field Violet [8, 16]: 100 | Plant response rating (scale of 0 to 100), Field Violet ([8]; Preemergence, 31 g ai/ha): 95 | Plant response rating (scale of 0 to 100), Field Violet ([8]; Preemergence, 62 g ai/ha): 95 | Plant response rating, Field Violet [8, 17]: 100 | Plant response rating, Field Violet [8, 18]: 100 | Plant response rating, Field Violet [8, 19]: 98 | Oat, Wild plant response rating [9, 14]: 75 | Plant response rating, Oat, Wild [9, 15]: 98 | Plant response rating, Oat, Wild [9, 16]: 100 | Plant response rating (scale of 0 to 100), Oat, Wild ([9]; Preemergence, 31 g ai/ha): 75 | Plant response rating (scale of 0 to 100), Oat, Wild ([9]; Preemergence, 62 g ai/ha): 80 | Plant response rating, Oat, Wild [9, 17]: 85 | Plant response rating, Oat, Wild [9, 18]: 98 | Plant response rating, Oat, Wild [9, 19]: 90 | Deadnettle plant response rating [10, 14]: 70 | Plant response rating, Deadnettle [10, 15]: 100 | Plant response rating, Deadnettle [10, 16]: 100 | Plant response rating (scale of 0 to 100), Deadnettle ([10]; Preemergence, 31 g ai/ha): 15 | Plant response rating (scale of 0 to 100), Deadnettle ([10]; Preemergence, 62 g ai/ha): 70 | Plant response rating, Deadnettle [10, 17]: 90 | Plant response rating, Deadnettle [10, 18]: 98 | Plant response rating, Deadnettle [10, 19]: 80 | Radish, Wild plant response rating [11, 14]: 65 | Plant response rating, Radish, Wild [11, 15]: 75 | Plant response rating, Radish, Wild [11, 16]: 95 | Plant response rating (scale of 0 to 100), Radish, Wild ([11]; Preemergence, 31 g ai/ha): 0 | Plant response rating (scale of 0 to 100), Radish, Wild ([11]; Preemergence, 62 g ai/ha): 65 | Plant response rating, Radish, Wild [11, 17]: 90 | Plant response rating, Radish, Wild [11, 18]: 95 | Plant response rating, Radish, Wild [11, 19]: 75 | Bromegrass, Downy plant response rating [12, 14]: 20 | Plant response rating, Bromegrass, Downy [12, 15]: 40 | Plant response rating, Bromegrass, Downy [12, 16]: 55 | Plant response rating (scale of 0 to 100), Bromegrass, Downy ([12]; Preemergence, 31 g ai/ha): 15 | Plant response rating, Bromegrass, Downy [12, 20]: 20 | Plant response rating, Bromegrass, Downy [12, 17]: 55 | Plant response rating, Bromegrass, Downy [12, 18]: 95 | Plant response rating, Bromegrass, Downy [12, 19]: 30 | Speedwell plant response rating [13, 14]: 100 | Plant response rating, Speedwell [13, 15]: 100 | Plant response rating, Speedwell [13, 16]: 100 | Plant response rating (scale of 0 to 100), Speedwell ([13]; Preemergence, 31 g ai/ha): 100 | Plant response rating (scale of 0 to 100), Speedwell ([13]; Preemergence, 62 g ai/ha): 100 | Plant response rating, Speedwell [13, 17]: 100 | Plant response rating, Speedwell [13, 18]: 100 | Plant response rating, Speedwell [13, 19]: 100
